PMC6724193 (ACS infectious diseases, 2019)
Values after ≈ are worked out from the molar mass of the structure shown. Values joined by “and” are separate entries in the source; they are usually repeats but may differ in a detail not shown here. Equal entries are not always repeated. “Also recorded” adds a separate entry of the source. Where two headings read alike, the source gives them in different places. Marks after values point to notes of the source that are not given here.

Experiments:
E. coli K-12 = assay: Intracellular accumulation of antibiotics; type: cell-based
[1] = for t1/2 (i.v.): 5 mg/kg i.v., terminal elimination half-life; for F (oral bioavailability) / AUC0–∞ (i.v.) / CL (i.v.) / Vd (i.v.) / AUC0–∞ (p.o.): mouse, in vivo; for AUC0–∞ (i.v.) / CL (i.v.) / Vd (i.v.): iv, 5 mg/kg; for AUC0–∞ (p.o.): po, 25 mg/kg
M. tuberculosis H37Rv [2] = assay: MIC against M. tuberculosis H37Rv; type: cell-based, Mycobacterium tuberculosis
[3] = molecular target: E. coli biotin synthase (EcBioB) (Escherichia coli, UniProt P12996); assay: biochemical; type: biochemical; settings: for IC50: 5 μM EcBioB dimer, 10 μM DTB, 100 μM SAM, single-turnover
E. coli biotin synthase (EcBioB), sequence (P12996 whole entry): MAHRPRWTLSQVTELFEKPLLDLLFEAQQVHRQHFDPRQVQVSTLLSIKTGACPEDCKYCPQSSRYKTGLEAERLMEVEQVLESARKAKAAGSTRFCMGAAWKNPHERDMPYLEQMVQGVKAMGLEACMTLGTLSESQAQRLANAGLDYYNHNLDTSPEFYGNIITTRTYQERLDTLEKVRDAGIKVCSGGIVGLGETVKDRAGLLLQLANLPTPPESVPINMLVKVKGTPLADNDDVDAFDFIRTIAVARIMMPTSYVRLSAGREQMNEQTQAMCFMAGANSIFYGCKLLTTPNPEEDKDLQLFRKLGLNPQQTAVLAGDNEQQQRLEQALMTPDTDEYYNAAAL

[4] = tested on: biotinylated proteome of M. tuberculosis; type: cell-based, M. tuberculosis H37Ra
A. baumannii (AB5075) = assay: MIC, broth microdilution, A. baumannii; settings: Acinetobacter baumannii
M. smegmatis mc^2155 = assay: MIC90 against M. smegmatis; type: cell-based; settings: ≥90% growth inhibition
[5] = tested on: non-tuberculosis mycobacteria, gram-positive and gram-negative pathogens; assay: organism not typed; type: cell-based
M. tuberculosis H37Rv [6] = type: cell-based
E. faecalis (V583) = assay: MIC, broth microdilution, E. faecalis; settings: Enterococcus faecalis
P. aeruginosa (PA14) = assay: MIC, broth microdilution, P. aeruginosa; settings: Pseudomonas aeruginosa
S. aureus (USA300) = assay: MIC, broth microdilution, S. aureus; settings: Staphylococcus aureus
M. tuberculosis Erdman = assay: microbe, parasite or virus in culture; type: cell-based; settings: Mycobacterium tuberculosis
Vero = settings: African green monkey, 72 h
[7] = tested on: M. tuberculosis (8) drug-sensitive clinical isolates; assay: microbe, parasite or virus in culture; type: cell-based; settings: Mycobacterium tuberculosis
M. africanum = assay: microbe, parasite or virus in culture; type: cell-based
M. avium complex (3) = assay: MIC against M. avium complex; type: cell-based; settings: Mycobacterium avium
M. tuberculosis (6) MDR+ = assay: microbe, parasite or virus in culture; type: cell-based; settings: Mycobacterium tuberculosis
E. coli ATCC 25922 = assay: MIC, broth microdilution, E. coli; settings: Escherichia coli, ATCC25922
M. abscessus (4) = assay: MIC against M. abscessus; type: cell-based; settings: Mycobacteroides abscessus
M. tuberculosis (2) XDR = assay: microbe, parasite or virus in culture; type: cell-based; settings: Mycobacterium tuberculosis
M. tuberculosis (7) MDR = assay: microbe, parasite or virus in culture; type: cell-based; settings: Mycobacterium tuberculosis
HepG2 = settings: human, 72 h
[8] = tested on: M. tuberculosis strain carrying two copies of the bioB gene; assay: MIC against BioB merodiploid strain; type: cell-based
M. tuberculosis HN878 = assay: microbe, parasite or virus in culture; type: cell-based; settings: Mycobacterium tuberculosis
M. bovis BCG = assay: microbe, parasite or virus in culture; type: cell-based
[9] = tested on: biotin pathway intermediates (vitamers); settings: acidomycin added to culture media; cited from earlier work
[10] = tested on: M. tuberculosis infection; settings: cited from earlier work
mycobacteria = settings: cited from earlier work
[11] = molecular target: MtBPL (M. tuberculosis biotin protein ligase) (Mycobacterium tuberculosis, UniProt I6YFP0); type: binding
MtBPL (M. tuberculosis biotin protein ligase), sequence (I6YFP0 whole entry, looked up): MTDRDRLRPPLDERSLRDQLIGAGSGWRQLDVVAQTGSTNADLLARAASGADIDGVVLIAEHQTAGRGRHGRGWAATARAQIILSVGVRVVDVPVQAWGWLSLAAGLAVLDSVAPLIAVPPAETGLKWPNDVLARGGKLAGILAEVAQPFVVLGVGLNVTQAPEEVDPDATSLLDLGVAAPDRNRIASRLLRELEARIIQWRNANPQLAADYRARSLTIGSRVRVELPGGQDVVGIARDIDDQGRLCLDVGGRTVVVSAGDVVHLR

[12] = tested on: gram-positive and gram-negative bacteria or fungi; settings: cited from earlier work

For `CO[C@H]1/C=C/O[C@@]2(C)Oc3c(C)c(O)c4c(O)c(c(/C=N/N5CCN(C)CC5)c(O)c4c3C2=O)NC(=O)/C(C)=C\C=C\[C@H](C)[C@H](O)[C@@H](C)[C@@H](O)[C@@H](C)[C@H](OC(C)=O)[C@@H]1C` [Rifampicin, reference compound], which “IC/EC Ratio” value (E. coli K-12) is on record?
The value was 2.1.

For `O=C(O)CCCCC[C@@H]1NC(=O)CS1` [(R)-(+)-acidomycin], which “t1/2 (i.v.)” value [1] is on record?
Its value is 19.2 ± 2.4 min.

And the “F (oral bioavailability)” value [1]?
The value was 16 ± 7%.

And the “AUC0–∞ (i.v.)” value [1]?
Its value is 2055 ± 564 ng·h/mL.

And the “CL (i.v.)” value [1]?
The value was 40.55 ± 8.03 mL/min/kg.

What about the “Vd (i.v.)” value [1] of the same molecule?
The value was 1.12 ± 0.37 L/kg.

What about the “AUC0–∞ (p.o.)” value [1] of the same molecule?
Its value is 1591 ± 718 ng·h/mL.

What about the MIC (M. tuberculosis H37Rv [2]) of the same molecule?
The MIC was 7.7 µM (≈ 1.67 µg/mL).

And the “fold difference in MIC relative to (S)-(−)-acidomycin” value (M. tuberculosis H37Rv [2])?
Its value is “thirteen-fold less active”.

And the IC50 [3]?
Its IC50 is > 100000 nM.

What about the “inhibition of EcBioB” value ([3]; at 100 μM) of the same molecule?
Its value is “less than 30%”.

For `CN(C)[C@@H]1C(O)=C(C(N)=O)C(=O)[C@@]2(O)C(O)=C3C(=O)c4c(O)cccc4[C@@](C)(O)[C@H]3C[C@@H]12` [Tetracycline, reference compound], which “Accumulation, +biotin” value (E. coli K-12) is on record?
The value was 1600 ± 100 nmol/10^12 CFUs.

And the “Accumulation, −biotin” value (E. coli K-12)?
The value was 3100 ± 120 nmol/10^12 CFUs.

What about the “Accumulation, +biotin” value (M. tuberculosis H37Ra) of the same molecule?
The value was 2220 ± 50 nmol/10^12 CFUs.

And the “Accumulation, −biotin” value (M. tuberculosis H37Ra)?
Its value is 2200 ± 200 nmol/10^12 CFUs.

For `Nc1ncnc2c1ncn2[C@@H]1O[C@H](CNS(=O)(=O)NC(=O)CCCC[C@@H]2SC[C@@H]3NC(=O)N[C@@H]32)[C@@H](O)[C@H]1O` [Bio-AMS, 5ʹ-[N-(D-biotinoyl)sulfamoyl]amino-5ʹ-deoxyadenosine], which “impact on global protein biotinylation” value [4] is on record?
Its value is “noticeable decrease in protein band intensity”.

What does the source list for `O=C(O)CCCCCC1NC(=O)CS1` (racemic) [(±)-acidomycin, 6-(4-Oxothiazolidin-2-yl)hexanoic acid]?
MIC90 (A. baumannii (AB5075)): > 1000 µM; MIC90 (M. smegmatis mc^2155): 10^d μM; activity toward representative gram-negative and gram-positive pathogens [5]: inactive; effect of KAPA supplementation on growth inhibition (M. tuberculosis H37Rv [6]): no effect; effect of biotin supplementation on growth inhibition (M. tuberculosis H37Rv [6]): completely rescued; shift of MIC by DTB supplementation (M. tuberculosis H37Rv [6]): approximately two-fold; MIC90 (E. faecalis (V583)): > 1000 µM; MIC90 (P. aeruginosa (PA14)): > 1000 µM; MIC90 (S. aureus (USA300)): > 1000 µM; MIC (M. tuberculosis Erdman): 1.56 µM (≈ 0.339 µg/mL); EC (greater than 50% inhibition of cell viability) (Vero): >1000^e μM; MIC [7]: 0.096 to 6.2 µM (≈ 0.0209 to 1.35 µg/mL); MIC (M. tuberculosis H37Rv [2]): 1.56 µM (≈ 0.339 µg/mL); effect on M. tuberculosis viability (M. tuberculosis H37Rv [2]): bacteriostatic; fold difference in MIC relative to (S)-(−)-acidomycin (M. tuberculosis H37Rv [2]): about 2.5 fold; MIC (M. tuberculosis H37Rv [2]; Mycobacterium tuberculosis, H37RV): 1.6 µM (≈ 0.348 µg/mL); MIC (M. africanum): 0.20 µM (≈ 0.0435 µg/mL); MIC (M. africanum; Mycobacterium tuberculosis): 0.2 µM (≈ 0.0435 µg/mL); Ki [3]: 2000 ± 1300 nM; modality of inhibition [3]: competitive inhibitor; also recorded: competitive inhibition; MIC (M. avium complex (3)): > 100 µM; MIC (M. tuberculosis (6) MDR+): 0.2 to 4.8 µM (≈ 0.0435 to 1.04 µg/mL); MIC90 (E. coli ATCC 25922): > 1000 µM; MIC (M. abscessus (4)): > 100 µM; MIC (M. tuberculosis (2) XDR): 0.096 to 1.2 µM (≈ 0.0209 to 0.261 µg/mL); MIC (M. tuberculosis (7) MDR): 0.6 to 6.2 µM (≈ 0.13 to 1.35 µg/mL); IC/EC Ratio (E. coli K-12): 1.6 and 1.6 ± 0.4; Intracellular Concentration, −biotin (E. coli K-12): 80 µM; Accumulation, −biotin (E. coli K-12; E. coli, 50 μM extracellular): 80 ± 20 nmol/10^12 CFUs; Accumulation, +biotin (E. coli K-12; E. coli, 50 μM extracellular, 1 μM biotin): 61 ± 2 nmol/10^12 CFUs; Intracellular Concentration, −biotin (E. coli K-12; E. coli, cell volume 1.0 μm^3): 80 ± 20 µM; EC (greater than 50% inhibition of cell viability) (HepG2): >1000^e μM; Accumulation, +biotin (M. tuberculosis H37Ra): 1150 ± 40 nmol/10^12 CFUs; Accumulation, −biotin (M. tuberculosis H37Ra): 1300 ± 400 nmol/10^12 CFUs; Intracellular Concentration, −biotin (M. tuberculosis H37Ra): 2600 ± 800 µM; fold higher accumulation in M. tuberculosis than in E. coli (M. tuberculosis H37Ra): approximately 30 fold; impact of exogenous biotin on cellular accumulation in M. tuberculosis (M. tuberculosis H37Ra): little impact; change of MIC in BioB merodiploid versus H37Rv [8]: increase in the MIC; MIC (M. tuberculosis HN878): 0.6 µM (≈ 0.13 µg/mL); MIC (M. bovis BCG): 1.30 µM (≈ 0.282 µg/mL); MIC (M. bovis BCG; Mycobacterium tuberculosis variant bovis BCG, BCG): 1.3 µM (≈ 0.282 µg/mL)

What does the source list for `O=C(O)CCCCCC1NC(=O)CS1` (stereo not shown) [acidomycin]?
susceptibility of NTM strains [5]: intrinsically resistant; MIC ([5]; read-out: MICs): > 1000 µM; increase of accumulation of biotin pathway intermediates (vitamers) [9]: two- to seventy-fold; difference in whole cell activity, E. coli versus M. tuberculosis (M. tuberculosis H37Rv [2]): > 100 fold; activity against an M. tuberculosis infection in vivo [10]: inactive; Ki [3]: ~1000 nM; production of 5′-deoxyadenosine by BioB [3]: significantly enhanced; time-dependent inhibition [3]: did not exhibit time-dependent inhibition; increase in inhibitory concentrations after growth in the presence of acidomycin (mycobacteria): two-fold; concentrations required to inhibit the growth of mycobacteria in vitro (mycobacteria; converted value): 1.2 to 46.0 µM; binding to MtBPL [11]: does not bind to MtBPL; solubility (physchem): < 4000 µM; concentration without growth inhibition [12]: > 1 mg/mL; concentration without growth inhibition ([12]; converted value): > 4.6 mM

For `O=C(O)CCCCC[C@H]1NC(=O)CS1` [(S)-(−)-acidomycin], which “t1/2 (i.v.)” value [1] is on record?
The value was 14.4 ± 0.1 min.

What about the “F (oral bioavailability)” value [1] of the same molecule?
Its value is 8 ± 1%.

What about the “AUC0–∞ (i.v.)” value [1] of the same molecule?
Its value is 2116 ± 115 ng·h/mL.

And the “CL (i.v.)” value [1]?
The value was 39.38 ± 2.1 mL/min/kg.

What about the “Vd (i.v.)” value [1] of the same molecule?
The value was 0.82 ± 0.05 L/kg.

And the “AUC0–∞ (p.o.)” value [1]?
The value was 890 ± 106 ng·h/mL.

What about the IC50 [3] of the same molecule?
Its IC50 is 13300 ± 1800 nM.

For `CSc1ccc2c(c1)N(CCC1CCCCN1C)c1ccccc1S2` (stereo not shown) [Thioridazine], which “Accumulation, +biotin” value (M. tuberculosis H37Ra) is on record?
Its value is 5.2 ± 0.4 nmol/10^12 CFUs.

What about the “Accumulation, −biotin” value (M. tuberculosis H37Ra) of the same molecule?
The value was 18 ± 1 nmol/10^12 CFUs.

And the “IC/EC Ratio” value (M. tuberculosis H37Ra)?
The value was 0.7 and 0.72 ± 0.04.

What about the “Intracellular Concentration, −biotin” value (M. tuberculosis H37Ra) of the same molecule?
Its value is 36 ± 2 µM.
